Measurements as given in patent publication US20260022118A1, “HETEROCYCLIC COMPOUNDS AS NRAS INHIBITORS” (Board of Regents, The University of Texas System, priority 2023, published 2026).

Legend:
NRAS G12D C118S = NRAS G12D C118S (Homo sapiens (Human), UniProt P01111, C118S/G12D); experiment: NRas G12D Surface Plasmon Resonance (SPR) binding assay; conditions: Avi-tagged biotinylated NRAS G12D C118S on streptavidin chip, 25° C., 1:1 kinetic or steady-state fit
Experimental: NRas G12D Surface Plasmon Resonance (SPR) Binding Assay
This Example illustrates that exemplary compounds and salts thereof described herein bind to NRAS G12D as measured by surface plasmon resonance (SPR).
Two liters of 1.03× running buffer (1.03×HBS-P+pH 7.4, containing 0.0103 M HEPES, 0.1545 M NaCl, 0.0515% v/v Surfactant P20 (Cytiva®, BR100671); 5.15 mM MgCl2 (Invitrogen, AM9530G); 0.515 mM TCEP, pH 8.0 (GoldBio®, TCEP25)) was prepared and filter sterilized using a 0.22 μm filter. A 1-L volumetric flask was filled partway with this buffer. A 30-mL volumetric flask was used to measure 30 mL of 100% DMSO (Sigma Aldrich®, 41639-100ML) which was added to the 1-L flask. The solution in the 1-L flask was brought up to 1 L with 1.03× buffer, resulting in a 1.0× assay running buffer containing 1.0×HBS-P+, 5 mM MgCl2, […], and 3% DMSO. Remaining 1.03× buffer was used for preparation of samples and immobilization running buffer.
Samples were prepared in a standard conical-bottomed 384-well microplate by adding 2 μL 10 mM DMSO cpd stock to each well, followed by 8 μL DMSO. A control compound was selected based off of its relatively “fast” kinetics that could be fitted by 1:1 kinetic fitting, as well as by steady-state fitting. Control wells for periodic injection to assess protein activity throughout the assay were also assembled, by diluting 10 mM compound 1:30 in DMSO, then adding 20 μL to the appropriate wells, such that the final concentration of compound would be 10 μM, and the final concentration of DMSO would be 3%. A Biomek™ FXP Laboratory Automation Workstation was used to stamp 20 μL DMSO into all sample wells—minus the control wells—according to the plate map, and then serially dilute 1:3 by mixing and aspirating 10 μL, delivering into the 20 μL of DMSO in the next well, resulting in 10-point serial dilution curves. A Biotek™ Multiflo EL406 Washer Dispenser was used to deliver 80 μL of 1.03× buffer to the compound plate. The plate was mixed 10× by FX, then a final dilution was performed by stamping 18 μL from the compound plate into a 384-well deep-well plate that had also been previously filled with 102 μL 1.03× buffer via the Multiflo. The solution in the deep-well plate was mixed 10× by FX, then sealed with a 384-well microplate foil from Cytiva® (Cytiva® BR100577) and placed on an orbital shaker for 30 minutes at 1000 RPM to ensure complete mixing of the DMSO solution in the buffer. A solvent correction curve was also prepared by making a 4% DMSO solution in 1.03× buffer and diluting in 1.03× buffer such that there were eight solutions of decreasing DMSO concentrations resulting in a high DMSO concentration of 4% and a low concentration of 2% DMSO.
Immobilization running buffer was prepared in a 200-mL volume by diluting 1.03× running buffer prepared above to 1.0×. A Cytiva® Streptavidin chip (Cytiva®, 29104992) was docked into a Biacore™ S200 instrument, and the instrument was then primed three times into the immobilization running buffer. A protein stock of Avi-tagged NRAS G12D C118S was prepared in-house and biotinylated using the Bulk BirA: BirA biotin-protein ligase bulk reaction kit from Avidity (Avidity®, Bulk BirA). Upon completion of the biotinylation reaction, Amicon® ultra 0.5-mL Centrifugal Filters with a MWCO of 3 k Da (Millipore® UFC500396) were used to reduce the free biotin concentration below 0.1 μM in the protein sample over the course of eight desalting cycles, according to the manufacturer's protocol. Resulting protein concentration was not measured directly as an accurate protein concentration is not required for immobilizing protein on the chip surface; however, a theoretical yield of ≤1.5 mg/mL was estimated based off of retained volumes during the desalting process. Reagents for immobilization were prepared as instructed in the Biacore™ 5200 Control Software Immobilization Wizard, including solutions of 1 M NaCl in 50 mM NaOH, and 1 M NaCl in 50 mM NaOH and 50% isopropyl alcohol. […]

[1] = system: THP-1 cells expressing G12D (NRAS G12D); experiment: Inhibition of NRAS G12D-mediated phosphorylation of ERK (AlphaLISA p-ERK1/2) in THP-1 cells; format: cell-based; conditions: Homo sapiens, THP-1, 2 h, 2 hours incubation, HBSS with 0% or 10% FBS, p-ERK1/2 (Thr202/Tyr204) AlphaLISA, read-out: pERK THP-1 IC50
Experimental: Inhibition of NRAS G12D-Mediated Phosphorylation of ERK by Exemplary Compounds of Formulas I, II, and III.
This Example illustrates that exemplary compounds and salts thereof described herein inhibit the phosphorylation of ERK downstream of NRAS G12D.
THP-1 cells (ATCC TIB-202) expressing G12D were maintained in RPMI-1640 medium supplemented with 10% fetal bovine serum (FBS), 0.05 mM 2-mercaptoethanol, and penicillin/streptomycin. Cells (20,000/well) were seeded onto a 384 well plate in 20 μL of HBSS supplemented with 0% or 10% FBS. Cells were incubated in the absence or presence of various concentrations of test compound (final 1% DMSO) for 2 hours. p-ERK expression was assessed using the AlphaLISA SureFire Ultra p-ERK1/2 (Thr202/Tyr204) (PerkinElmer®, ALSU-PERK-A10K) following manufacturer recommendation. Plates were read on a PerkinElmer® Envision Multimode plate reader. Dose-response curves were analyzed using IC50 regression curve fitting (GeneData Screener). Curves were plotted as a percent control and normalized by high controls without inhibitor (100%), and low controls (0%) containing 1 μM of trametinib, a potent MEK inhibitor.

Chain of NRAS G12D C118S (P01111 whole entry G12D/C118S): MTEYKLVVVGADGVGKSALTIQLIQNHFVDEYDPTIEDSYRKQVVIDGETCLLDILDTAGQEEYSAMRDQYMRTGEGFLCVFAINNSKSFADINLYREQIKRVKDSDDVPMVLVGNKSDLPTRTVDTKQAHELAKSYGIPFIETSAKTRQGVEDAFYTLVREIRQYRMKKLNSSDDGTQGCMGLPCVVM

Structure (SMILES) | IC50 [1] | Kd (NRAS G12D C118S)
C#Cc1c(F)ccc2cc(O)cc(-c3ncc4c([C@H]5[C@@H]6CNC[C@@H]65)cn(C)c4c3F)c12 [Example 2, 4-(3-((1R,5S,6S)-3-azabicyclo[3.1.0]hexan-6-yl)-7-fluoro-1-methyl-1H-pyrrolo[3,2-c]pyridin-6-yl)-5-ethynyl-6-fluoronaphthalen-2-ol 2,2,2-trifluoroacetate] |  | 0.0526 µM
C#Cc1c(F)ccc2cc(O)cc(-c3cc4c(cn3)c(N3CC5CCC(C3)N5)nn4CC)c12 [Example 6, 4-(3-(3,8-diazabicyclo[3.2.1]octan-3-yl)-1-ethyl-1H-pyrazolo[4,3-c]pyridin-6-yl)-5-ethynyl-6-fluoronaphthalen-2-ol] |  | 8.2 µM
C#Cc1c(F)ccc2cc(O)cc(-c3cc4c(cn3)c(N3CC5CCC(C3)N5)nn4CCC)c12 [Example 7, 4-(3-(3,8-diazabicyclo[3.2.1]octan-3-yl)-1-propyl-1H-pyrazolo[4,3-c]pyridin-6-yl)-5-ethynyl-6-fluoronaphthalen-2-ol] |  | 4.75 µM
C#Cc1c(F)ccc2cc(O)cc(-c3ncc4c(C5=CC6CCC(C5)N6)nn(CC)c4c3F)c12 (centres unmarked) [Example 9, 4-(3-(8-azabicyclo[3.2.1]oct-2-en-3-yl)-1-ethyl-7-fluoro-1H-pyrazolo[4,3-c]pyridin-6-yl)-5-ethynyl-6-fluoronaphthalen-2-ol] |  | 16.2 µM
C#Cc1c(F)ccc2cc(O)cc(-c3ncc4c(N5CCNCC5)nn(CC)c4c3F)c12 [Example 10, 4-(1-ethyl-7-fluoro-3-(piperazin-1-yl)-1H-pyrazolo[4,3-c]pyridin-6-yl)-5-ethynyl-6-fluoronaphthalen-2-ol] |  | 38.7 µM
C#Cc1c(F)ccc2cc(O)cc(-c3ncc4c(N[C@H]5[C@@H]6CNC[C@@H]65)nn(CC)c4c3F)c12 [Example 11, 4-(3-(((1R,5S,6s)-3-azabicyclo[3.1.0]hexan-6-yl)amino)-1-ethyl-7-fluoro-1H-pyrazolo[4,3-c]pyridin-6-yl)-5-ethynyl-6-fluoronaphthalen-2-ol] |  | 31 µM
C#Cc1c(F)ccc2cc(O)cc(-c3nc(N(C)CC)c4c([C@H]5[C@@H]6CNC[C@@H]65)nn(C5CC5)c4c3F)c12 [Example 81, 4-(3-((1R,5S,6r)-3-azabicyclo[3.1.0]hexan-6-yl)-1-cyclopropyl-4-(ethyl(methyl)amino)-7-fluoro-1H-pyrazolo[4,3-c]pyridin-6-yl)-5-ethynyl-6-fluoronaphthalen-2-ol] | 0.0746 µM | 
C#Cc1c(F)ccc2cc(O)cc(-c3nc(C(C)=O)c4c([C@H]5[C@@H]6CNC[C@@H]65)nn(C5CC5)c4c3F)c12 [Example 84, 1-(3-((1R,5S,6r)-3-azabicyclo[3.1.0]hexan-6-yl)-1-cyclopropyl-6-(8-ethynyl-7-fluoro-3-hydroxynaphthalen-1-yl)-7-fluoro-1H-pyrazolo[4,3-c]pyridin-4-yl)ethan-1-one] | 0.458 µM | 
C#Cc1c(F)ccc2cc(O)cc(-c3nc(C(C)O)c4c([C@H]5[C@@H]6CNC[C@@H]65)nn(C5CC5)c4c3F)c12 (stereo partly drawn) [Example 87, 4-(3-((1R,5S,6r)-3-azabicyclo[3.1.0]hexan-6-yl)-1-cyclopropyl-7-fluoro-4-(1-hydroxyethyl)-1H-pyrazolo[4,3-c]pyridin-6-yl)-5-ethynyl-6-fluoronaphthalen-2-ol] | 0.112 µM | 
C#Cc1c(F)ccc2cc(O)cc(-c3nc(C(=C)C)c4c(N5C[C@@H]6CC[C@H]5CN6)nn(C5CC5)c4c3F)c12 [Example 89, 4-(3-((1S,4S)-2,5-diazabicyclo[2.2.2]octan-2-yl)-1-cyclopropyl-7-fluoro-4-(prop-1-en-2-yl)-1H-pyrazolo[4,3-c]pyridin-6-yl)-5-ethynyl-6-fluoronaphthalen-2-ol] | 3.73 µM | 
C#Cc1c(F)ccc2cc(O)cc(-c3ncc4c(C5[C@H]6CNC[C@@H]56)nn5c4c3OCC5)c12 (stereo partly drawn) [Example 94, 4-[3-[(1S,5R)-3-azabicyclo[3.1.0]hexan-6-yl]-9-oxa-1,2,6-triazatricyclo[6.3.1.04,12]dodeca-2,4,6,8(12)-tetraen-7-yl]-5-ethynyl-6-fluoro-naphthalen-2-ol] | > 10 µM | 
C#Cc1c(F)ccc2cc(O)cc(-c3nc4c5c(nn(C)c5c3F)N3C[C@H]5CC[C@H](N5)[C@H]3CO4)c12 [Example 95, 5-ethynyl-6-fluoro-4-[(4R,7S,8S)-14-fluoro-16-methyl-10-oxa-2,12,16,17,19-pentazapentacyclo[9.6.1.14,7.02,8.015,18]nonadeca-1(17),11(18),12,14-tetraen-13-yl]naphthalen-2-ol] | > 10 µM | 
C#Cc1c(F)ccc2cc(O)cc(-c3ncc4c(C5[C@H]6CNC[C@@H]56)nc(C)n4c3F)c12 (some centres unmarked) [Example 98, 4-[1-(3-azabicyclo[3.1.0]hexan-6-yl)-5-fluoro-3-methyl-imidazo[1,5-a]pyrazin-6-yl]-5-ethynyl-6-fluoro-naphthalen-2-ol] | 9.27 µM | 
C#Cc1c(F)ccc2cc(O)cc(-c3ncc4c(N5C[C@@H]6CC[C@H]5CN6)nn(C5CC5)c4n3)c12 [Example 101, 4-(3-((1S,4S)-2,5-diazabicyclo[2.2.2]octan-2-yl)-1-cyclopropyl-1H-pyrazolo[3,4-d]pyrimidin-6-yl)-5-ethynyl-6-fluoronaphthalen-2-ol] | > 10 µM | 

Further lines, with some results ahead:

IC50 [1] | Structure (SMILES) | Kd (NRAS G12D C118S)
9.26 µM | C#Cc1c(F)ccc2cc(O)cc(-c3ncc4c(NCCN)nn(C)c4c3F)c12 [Example 93, 4-(3-((2-aminoethyl)amino)-7-fluoro-1-methyl-1H-pyrazolo[4,3-c]pyridin-6-yl)-5-ethynyl-6-fluoronaphthalen-2-ol] | 
> 10 µM | C#Cc1c(F)ccc2cc(O)cc(-c3ncc4c([C@H]5[C@@H]6CNC(COC)[C@@H]65)nn(C5CC5)c4c3F)c12 (stereo partly drawn) [Example 99, 4-(1-cyclopropyl-7-fluoro-3-((1S,5R,6S)-2-(methoxymethyl)-3-azabicyclo[3.1.0]hexan-6-yl)-1H-pyrazolo[4,3-c]pyridin-6-yl)-5-ethynyl-6-fluoronaphthalen-2-ol] | 
> 10 µM | C#Cc1c(F)ccc2cc(O)cc(-c3ncc4c(N5C[C@@H]6CC[C@H]5CN6)c(C)n(C)c4c3F)c12 [Example 107, 4-(3-((1S,4S)-2,5-diazabicyclo[2.2.2]octan-2-yl)-7-fluoro-1,2-dimethyl-1H-pyrrolo[3,2-c]pyridin-6-yl)-5-ethynyl-6-fluoronaphthalen-2-ol] | 
